This test deals with T1, IRAK1/4 human.
T1 construct: fused on or other part: His tag and TEV cleavage site at the N-terminus
The experiment in a line: IRAK1/4 phosphorylation IC50 (enzymatic assay, table 2). In kind it is biochemical. As to conditions: human IRAK1/4 phosphorylation. The method in brief:
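Human IRAK-1 or IRAK-4, each carrying a His-TEV tag, was incubated with ATP and compounds in DMSO ranging from 20 µM to 1 nM in 384-well plates, and IRAK-4 reactions also contained STK1-biotin peptide. Reactions ran in 50 mM Hepes pH7.0 with MgCl2, DTT, EGTA and BSA for 2 or 3 hours, with 2% DMSO controls. Inhibition is given as IC50.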

Each structure is given as a SMILES string. Counter-ions that a name gives are not always drawn.

Turning to `Cc1cnccc1-c1ccc(-n2cc(-c3n[nH]c4ccccc34)nn2)cc1` [Example 290], the IC50 (in general, the concentration at which inhibition is half-maximal) was in the range of 100 to 1000 nM.

`Fc1ccc2c(-c3cn(-c4ccc(C5CCN(CCC(F)(F)F)CC5)cc4)nn3)n[nH]c2c1` [Example 135, 6-fluoro-3-(1-{4-[1-(3,3,3-trifluoropropyl)piperidin-4-yl]phenyl}-1H-1,2,3-triazol-4-yl)-1H-indazole]: the IC50 is 100 to 1000 nM. The figure for `O=C(c1ccc(-n2cc(-c3n[nH]c4ccc(N5CCCC(O)C5)cc34)nn2)cc1)N1CCOCC1` (stereo not drawn) [Example 254] is 100 to 1000 nM. Under `CN(C)C1CCN(c2ccc3[nH]nc(-c4cn(-c5ccc(C(=O)N6CCOCC6)cc5)nn4)c3c2)C1` (stereo not drawn) [Example 149, N,N-dimethyl-1-(3-{1-[4-(morpholin-4-ylcarbonyl)phenyl]-1H-1,2,3-triazol-4-yl}-1H-indazol-5-yl)pyrrolidin-3-amine] stands less than 100 nM; under `COC/C=C/c1ccc2c(-c3cn(-c4ccc(C(=O)N5CCOCC5)cc4)nn3)n[nH]c2c1` [Example 212], 100 to 1000 nM; under `O=C(NC1CCOCC1)c1ccc2[nH]nc(-c3cn(-c4ccc(CN5CCOCC5)cc4)nn3)c2c1` [Example 228], 100 to 1000 nM. `O=C(NCc1ccc(-n2cc(-c3n[nH]c4ccccc34)nn2)cc1)C1CCCC1` [Example 13, N-{4-[4-(1H-indazol-3-yl)-1H-1,2,3-triazol-1-yl]benzyl}cyclopentanecarboxamide] returned an IC50 of 1000 to 5000 nM. For `O=C(Nc1cnn(C2CCNC2)c1)c1ccc(-n2cc(-c3n[nH]c4ccccc34)nn2)cc1` (stereo not drawn) [Example 169], the IC50 lay in the range of 100 to 1000 nM. Under `NCc1ccc(-n2cc(-c3n[nH]c4ccccc34)nn2)cc1` [Example 12, 1-{4-[4-(1H-indazol-3-yl)-1H-1,2,3-triazol-1-yl]phenyl}methanamine] stands 1000 to 5000 nM.

As to `OCc1ccc(-n2cc(-c3n[nH]c4ccccc34)nn2)cc1` [Example 187], the IC50 fell in the range of 100 to 1000 nM. For `COCCNC(=O)c1cccc(-n2cc(-c3n[nH]c4ccccc34)nn2)c1` [Example 65, 3-[4-(1H-indazol-3-yl)-1H-1,2,3-triazol-1-yl]-N-(2-methoxyethyl)benzamide], the IC50 lay in the range of 1000 to 5000 nM.

In the case of `CCC(O)CCc1ccc2c(-c3cn(-c4ccc(C(=O)N5CCOCC5)cc4)nn3)n[nH]c2c1` (stereo not drawn) [Example 218], the IC50 was in the range of 1000 to 5000 nM. Turning to `COc1cc2[nH]nc(-c3cn(-c4ccc(C(=O)N5CCOCC5)cc4)nn3)c2cc1OC` [Example 189], the IC50 was 100 to 1000 nM. `CC(C)=Cc1ccc2[nH]nc(-c3cn(-c4ccc(C(=O)N5CCC(N(C)C)CC5)cc4)nn3)c2c1` [Example 138, N,N-dimethyl-1-(4-{4-[5-(2-methylprop-1-en-1-yl)-1H-indazol-3-yl]-1H-1,2,3-triazol-1-yl}benzoyl)piperidin-4-amine] came in with an IC50 of 100 to 1000 nM.

As to `CN(C)C1CCN(C(=O)c2ccc(-n3cc(-c4n[nH]c5ccc(C6CCOCC6)cc45)nn3)cc2)CC1` [Example 178], the IC50 fell in the range of 100 to 1000 nM. Take `COc1cc(-n2cc(-c3n[nH]c4ccccc34)nn2)ccc1C1CCNCC1` [Example 268]: the IC50 was less than 100 nM. Under `FC(F)(F)c1ccc2c(-c3cn(-c4ccc(C5CCNCC5)cc4)nn3)n[nH]c2c1` [Example 299] stands 100 to 1000 nM.

`CN1[C@@H]2CCC[C@H]1C[C@H](c1ccc(-n3cc(-c4n[nH]c5ccccc45)nn3)cc1)C2` [Example 273] returned an IC50 of less than 100 nM.

`CN1CCC(NC(=O)c2ccc3[nH]nc(-c4cn(-c5ccc(CN6CCOCC6)cc5)nn4)c3c2)CC1` [Example 143, N-(1-methylpiperidin-4-yl)-3-{1-[4-(morpholin-4-ylmethyl)phenyl]-1H-1,2,3-triazol-4-yl}-1H-indazole-5-carboxamide] displayed an IC50 of 100 to 1000 nM. Compound `Nc1ccc(-c2ccc(-n3cc(-c4n[nH]c5ccccc45)nn3)cc2)cn1` [Example 258] registered an IC50 of 100 to 1000 nM.

Compound `c1ccc2c(-c3cn(-c4ccc(CN5CC6CCC(C5)O6)cc4)nn3)n[nH]c2c1` [Example 284] yielded an IC50 of 1000 to 5000 nM. Compound `CN(C(=O)c1ccc(-n2cc(-c3n[nH]c4ccccc34)nn2)cc1)C1CCOCC1` [Example 171] showed an IC50 of 100 to 1000 nM. The figure for `O=C(NCCCN1CCCCC1)c1cccc(-n2cc(-c3n[nH]c4ccccc34)nn2)c1` [Example 63, 3-[4-(1H-indazol-3-yl)-1H-1,2,3-triazol-1-yl]-N-(3-piperidin-1-ylpropyl)benzamide] is 1000 to 5000 nM; for `CC(C)c1ccc2c(-c3cn(-c4ccc(C(=O)N5CCOCC5)cc4)nn3)n[nH]c2c1` [Example 206] it is 100 to 1000 nM. In turn, `Cc1ccc2c(-c3cn(-c4ccc(CN5CCCCC56COC6)cc4)nn3)n[nH]c2c1` [Example 287] came in with an IC50 of 100 to 1000 nM.

With `O=C(c1ccc(-n2cc(-c3n[nH]c4ccccc34)nn2)cc1)N(CCO)C1CCCCC1` [Example 107, N-cyclohexyl-N-(2-hydroxyethyl)-4-[4-(1H-indazol-3-yl)-1H-1,2,3-triazol-1-yl]benzamide], the IC50 fell in the range of 100 to 1000 nM.

`CC1CN(C(=O)c2ccc(-n3cc(-c4n[nH]c5ccccc45)nn3)cc2)CCO1` (stereo not drawn) [Example 160] displayed an IC50 of 100 to 1000 nM.

In turn, `O=C(c1ccc(-n2cc(-c3n[nH]c4ccccc34)nn2)cc1)N1CC2(COC2)C1` [Example 170] showed an IC50 of 100 to 1000 nM. Under `CCN(CC)CCNC(=O)c1ccc(-n2cc(-c3n[nH]c4ccccc34)nn2)cc1` [Example 46, N-[2-(diethylamino)ethyl]-4-[4-(1H-indazol-3-yl)-1H-1,2,3-triazol-1-yl]benzamide] stands 100 to 1000 nM; under `O=C(c1ccc(-n2cc(-c3n[nH]c4cc(/C=C/CO)ccc34)nn2)cc1)N1CCOCC1` [Example 240], less than 100 nM. `CN(C)C1CCN(C(=O)c2ccc(-n3cc(-c4n[nH]c5ccc(C6=CCCC6)cc45)nn3)cc2)CC1` [Example 172]: the IC50 lay in the range of 100 to 1000 nM. The figure for `COC(=O)c1ccc2[nH]nc(-c3cn(-c4ccc(CN5CCOCC5)cc4)nn3)c2c1` [Example 142, methyl 3-{1-[4-(morpholin-4-ylmethyl)phenyl]-1H-1,2,3-triazol-4-yl}-1H-indazole-5-carboxylate] is 100 to 1000 nM; for `CC(C)Cc1ccc2[nH]nc(-c3cn(-c4ccc(C(=O)N5CCC(N(C)C)CC5)cc4)nn3)c2c1` [Example 139, 1-{4-[4(5-isobutyl-1H-indazol-3-yl)-1H-1,2,3-triazol-1-yl]benzoyl}-N,N-dimethylpiperidin-4-amine] it is 100 to 1000 nM; for `c1ccc2c(-c3cn(-c4ccc(CN5CCCCC5)cc4)nn3)n[nH]c2c1` [Example 247] it is 100 to 1000 nM.

`CN(C)C1CCN(C(=O)c2ccc3[nH]nc(-c4cn(-c5ccc(CN6CCOCC6)cc5)nn4)c3c2)CC1` [Example 237] gave an IC50 of 100 to 1000 nM. Under `O=C(c1ccc(-n2cc(-c3n[nH]c4ccccc34)nn2)cc1)N1CCCC2(COC2)C1` [Example 165] stands 100 to 1000 nM. For `c1ccc2c(-c3cn(-c4cnn(CCN5CCOCC5)c4)nn3)n[nH]c2c1` [Example 180], the IC50 was 100 to 1000 nM. `CC(=O)Nc1ccc(-c2ccc(-n3cc(-c4n[nH]c5ccccc45)nn3)cc2)cn1` [Example 291] came in with an IC50 of 100 to 1000 nM. `CC1(C)CN(C(=O)c2ccc(-n3cc(-c4n[nH]c5ccccc45)nn3)cc2)CCO1` [Example 162] displayed an IC50 of 100 to 1000 nM.

In turn, `OC1CNCCC1c1ccc(-n2cc(-c3n[nH]c4ccccc34)nn2)cc1` (stereo not drawn) [Example 137, 4-{4-[4-(1H-indazol-3-yl)-1H-1,2,3-triazol-1-yl]phenyl}piperidin-3-ol hydrochloride] yielded an IC50 of 100 to 1000 nM. The figure for `CN(C)S(=O)(=O)c1ccc(-n2cc(-c3n[nH]c4ccccc34)nn2)cc1` [Example 241] is 100 to 1000 nM; for `CN1C2CCC1CC(n1cc(-n3cc(-c4n[nH]c5ccc(F)cc45)nn3)cn1)C2` (stereo not drawn) [Example 226] it is 100 to 1000 nM. `Cc1nn(C)cc1-c1ccc(-n2cc(-c3n[nH]c4ccccc34)nn2)cc1` [Example 289] had an IC50 of 100 to 1000 nM. Under `c1ccc2c(-c3cn(-c4ccc(N5CCNCC5)cc4)nn3)n[nH]c2c1` [Example 246] stands 100 to 1000 nM. Under `O=C(NCCCN1CCOCC1)c1cccc(-n2cc(-c3n[nH]c4ccccc34)nn2)c1` [Example 58, 3-[4-(1H-indazol-3-yl)-1H-1,2,3-triazol-1-yl]-N-(3-morpholin-4-ylpropyl)benzamide] stands 100 to 1000 nM; under `O=C(Nc1cnn(CCc2ccncc2)c1)c1ccc(-n2cc(-c3n[nH]c4ccccc34)nn2)cc1` [Example 176], 100 to 1000 nM; under `CN1CCC(NC(=O)c2ccc(-n3cc(-c4n[nH]c5ccccc45)nn3)cc2)CC1` [Example 116, 4-[4-(1H-indazol-3-yl)-1H-1,2,3-triazol-1-yl]-N-(1-methylpiperidin-4-yl)benzamide], 1000 to 5000 nM. Consider `Cc1ccc2c(-c3cn(-c4ccc(C5CCN(CCC(F)(F)F)CC5)cc4)nn3)n[nH]c2c1` [Example 270], for which the IC50 fell in the range of 1000 to 5000 nM.

`N#CCCN1CCN(C(=O)c2ccc(-n3cc(-c4n[nH]c5ccccc45)nn3)cc2)CC1` [Example 57, 3-(4-(4-[4-(1H-indazol-3-yl)-1H-1,2,3-triazol-1-yl]benzoyl}piperazin-1-yl)propanenitrile]: the IC50 was in the range of 100 to 1000 nM. The figure for `O=S1(=O)CCN(Cc2ccc(-n3cc(-c4n[nH]c5ccccc45)nn3)cc2)CC1` [Example 259] is 100 to 1000 nM; for `O=C(c1ccc(-n2cc(-c3n[nH]c4ccc(C(F)(F)F)cc34)nn2)cc1)N1CCOCC1` [Example 156] it is 100 to 1000 nM; for `O=C(CCc1cccc(-n2cc(-c3n[nH]c4ccccc34)nn2)c1)N1CCCC1` [Example 87, 3-{1-[3-(3-oxo-3-pyrrolidin-1-ylpropyl)phenyl]-1H-1,2,3-triazol-4-yl}-1H-indazole] it is 1000 to 5000 nM. In turn, `O=C(NCc1cccc(O)c1)c1ccc2[nH]nc(-c3cn(-c4ccc(CN5CCOCC5)cc4)nn3)c2c1` [Example 230] displayed an IC50 of less than 100 nM.

In turn, `FC(F)(F)c1cc(-n2cc(-c3n[nH]c4ccccc34)nn2)ccc1C1CCNCC1` [Example 263] yielded an IC50 of 100 to 1000 nM.
